Measurements from patent publication US20230241226A1, “COMPOUNDS FOR TARGETED DEGRADATION OF CARRIER PROTEINS AND USES THEREOF” (CeMM - Forschungszentrum für Molekulare Medizin GmbH, priority 2019, published 2023).

Experiments:
Strep/HA SLC9A9 = target: T1, Strep/HA SLC9A9 (Homo sapiens, UniProt Q8IVB4); experiment: Selectivity across SLC9 family: degradation of exogenous Strep/HA SLC9A9; assay type: cell-based; settings: HAP1; 250 or 750 nM; 16 hours
T1 construct: expressed in transfected cells; host or cells: HAP1 (lentiviral, pRRL Strep-HA)
Procedure: (§1) (E) Selectivity of d9A1-2 was tested across HAP1 cell lines expressing Strep/HASLC9A1, 9A4, 9A5, 9A8, 9A2, 9B2, 9A6, 9A9, and 9A3. Cells were treated with varying concentrations of d9A1-2 for 16 hours, after which degradation of the exogenous SLCs was monitored.
(§2) SLC1A5, SLC2A1, SLC2A3, SLC16A1, SLC38A1, SLC38A2 were obtained as gateway-compatible pENTR/pDONR vectors from the Harvard PlasmID Repository. SLC39A7 was obtained from Dharmacon, GE Healthcare. The following vectors were synthesized by Genescript: SLC4A4, SLC7A3, SLC38A9, SLC25A1, SLC9A1, SLC9A2, SLC9A3, SLC9A4, SLC9A5, SLC9A6, SLC9A7, SLC9A8, and SLC9B2. SLC30A9, SLC33A1, SLC35B2, SLC25A26, and MTCH2 were a gift from the RESOLUTE consortium. cDNAs were transferred into gateway-compatible lentiviral expression vectors: pLX305 dTAG vectors (Addgene #91797/8) or pRRL Strep-HA (described previously43, EF1a promotor driven expression) using LR recombination (ThermoFisher Scientific). […]
(§3) For immunoblotting, whole cell extracts were prepared using RIPA lysis buffer (25 mM Tris/HCl pH 7.6, 150 mM NaCl, 1% NP-40, 1% sodium deoxycholate, 0.1% SDS, EDTA-free protease inhibitor (Roche) and phosphatase inhibitors 2+3 (Sigma- Aldrich)). […] Protein extracts were quantified and normalized using the BCA assay (Thermo Scientific). […]

Strep/HA SLC9A1 = target: T2, Strep/HA SLC9A1 (Homo sapiens, UniProt P19634); experiment: Selectivity across SLC9 family: degradation of exogenous Strep/HA SLC9A1; assay type: cell-based; settings: HAP1; 250 or 750 nM; 16 hours
T2 construct: expressed in transfected cells; host or cells: HAP1 (lentiviral, pRRL Strep-HA; cDNA synthesized by Genescript)
Procedure: as §1, §2, §3

[1] = system: Peripheral blood mononuclear cells (PBMCs); experiment: Cellular viability assay (CellTiter-Glo), dose curve, FIG. 9; assay type: cell-based, human; settings: PBMCs of healthy donors and patients (AML, multiple myeloma, B cell lymphoma, Hodgkin's lymphoma, CLL), 72 hours
Procedure: Relative viability of Peripheral blood mononuclear cells (PBMCs) after treatment with the d9A1-2 molecule PBMCs were isolated from healthy donors and patients with acute myeloid leukemia, multiple myeloma, B cell lymphoma and Hodgkin’s lymphoma, chronic lymphocytic leukeumia and treated with a dose curve of d9A1-2. Viability was assayed using the CellTiter-Glo assay, 72 hours post treatment.
Peripheral blood mononuclear cells (PBMCs) were isolated using Lymphoprep (Stem Cell Technologies) from healthy donors and patients with acute myeloid leukemia, multiple myeloma, B cell lymphoma, Hodgkin’s lymphoma, chronic lymphocytic leukeumia. For comparison of different samples, compounds were transferred on black 384-well plates using an acoustic liquid handler (Echo, Labcyte). Cells were seeded in these plates at densities of 20,000 cells per well in RPMI media (Gibco), supplemented with 10% fetal calf serum (Gibco). Viability was measured after 72 hours using the CellTiter-Glo assay (Promega) on a plate reader (SpectraMax i3x, Molecular Probes). All measurements were done in technical quadruplicates. Toxicity achieved by treatment with d9A1-2 was normalized to the reference controls. Dose response fitting curves were obtained and plotted using GraphPad Prism V8. Data is presented as mean +/- SD.

dTAG-HA SLC16A1 = target: T3, dTAG-HA SLC16A1 (Homo sapiens, UniProt P53985+Q96SW2); experiment: Targeted degradation of dTAG-tagged SLC16A1 (western blot); assay type: cell-based; settings: HAP1, 0.5 µM, 24, 48 or 72 hours
T3 construct: expressed in transfected cells
Procedure: (§4) (C)HAP1 cells expressing dTAG-HA SLC1A5, 2A3, 30A9, 35B2, MTCH2, and 33A1 were treated for 24 hours with 0.5 µM of dTAG7 or dTAG13, as indicated. HAP1 cells expressing dTAG-HA SLC2A1 and 16A1 were treated for 24 hrs with 0.5 µM of dTAG7. HAP1 cell lines expressing dTAG-HA SLC39A7, dTAG-HA SLC4A4, and SLC7A3-dTAG-HA were treated for 48 hrs with 0.5 µM of dTAG13.
(§5) SLC1A5, SLC2A1, SLC2A3, SLC16A1, SLC38A1, SLC38A2 were obtained as gateway-compatible pENTR/pDONR vectors from the Harvard PlasmID Repository. SLC39A7 was obtained from Dharmacon, GE Healthcare. The following vectors were synthesized by Genescript: SLC4A4, SLC7A3, SLC38A9, SLC25A1, SLC9A1, SLC9A2, SLC9A3, SLC9A4, SLC9A5, SLC9A6, SLC9A7, SLC9A8, and SLC9B2. […]
as §3
(§6) SLCs were ectopically expressed as fusions to a mutated FKBP domain, also known as the dTAG system. […]

dTAG-HA SLC35B2 = target: T4, dTAG-HA SLC35B2 (Homo sapiens, UniProt Q8TB61+Q96SW2); experiment: Targeted degradation of dTAG-tagged SLC35B2 (western blot); assay type: cell-based; settings: HAP1, 0.5 µM, 24, 48 or 72 hours
T4 construct: expressed in transfected cells
Procedure: as §4, §5, §3, §6

dTAG-HA SLC33A1 = target: T5, dTAG-HA SLC33A1 (Homo sapiens, UniProt O00400+Q96SW2); experiment: Targeted degradation of dTAG-tagged SLC33A1 (western blot); assay type: cell-based; settings: HAP1, 0.5 µM
T5 construct: expressed in transfected cells
Procedure: as §4, §5, §3, §6

T3 sequence (P53985 with tags, fused parts or gaps): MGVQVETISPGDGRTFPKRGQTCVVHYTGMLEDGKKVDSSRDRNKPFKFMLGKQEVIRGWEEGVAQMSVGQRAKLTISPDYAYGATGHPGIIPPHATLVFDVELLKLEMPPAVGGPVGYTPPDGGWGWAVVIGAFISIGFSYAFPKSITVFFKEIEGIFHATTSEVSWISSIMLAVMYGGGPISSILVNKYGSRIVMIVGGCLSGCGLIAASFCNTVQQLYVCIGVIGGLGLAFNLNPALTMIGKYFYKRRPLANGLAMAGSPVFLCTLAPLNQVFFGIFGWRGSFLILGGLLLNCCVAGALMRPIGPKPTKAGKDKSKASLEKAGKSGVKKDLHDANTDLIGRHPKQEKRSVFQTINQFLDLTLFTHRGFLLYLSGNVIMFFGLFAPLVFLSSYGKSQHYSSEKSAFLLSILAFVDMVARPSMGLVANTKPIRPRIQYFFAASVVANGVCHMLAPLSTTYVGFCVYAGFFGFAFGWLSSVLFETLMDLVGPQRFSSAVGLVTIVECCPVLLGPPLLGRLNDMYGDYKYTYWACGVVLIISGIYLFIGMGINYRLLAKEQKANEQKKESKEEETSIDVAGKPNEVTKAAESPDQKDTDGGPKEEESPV
T3 sequence (Q96SW2 whole entry): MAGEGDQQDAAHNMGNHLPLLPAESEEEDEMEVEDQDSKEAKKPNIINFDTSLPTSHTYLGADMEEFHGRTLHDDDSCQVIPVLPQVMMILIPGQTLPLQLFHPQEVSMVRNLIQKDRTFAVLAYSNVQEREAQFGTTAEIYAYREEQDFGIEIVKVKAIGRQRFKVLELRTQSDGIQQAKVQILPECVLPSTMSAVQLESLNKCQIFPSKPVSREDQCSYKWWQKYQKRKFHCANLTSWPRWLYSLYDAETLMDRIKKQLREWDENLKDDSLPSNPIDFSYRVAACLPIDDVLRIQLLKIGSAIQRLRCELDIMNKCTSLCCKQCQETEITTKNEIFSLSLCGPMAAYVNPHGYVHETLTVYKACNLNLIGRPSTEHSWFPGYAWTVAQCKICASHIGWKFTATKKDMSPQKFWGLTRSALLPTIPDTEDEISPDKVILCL
T3 sequence (Q16531 whole entry partner): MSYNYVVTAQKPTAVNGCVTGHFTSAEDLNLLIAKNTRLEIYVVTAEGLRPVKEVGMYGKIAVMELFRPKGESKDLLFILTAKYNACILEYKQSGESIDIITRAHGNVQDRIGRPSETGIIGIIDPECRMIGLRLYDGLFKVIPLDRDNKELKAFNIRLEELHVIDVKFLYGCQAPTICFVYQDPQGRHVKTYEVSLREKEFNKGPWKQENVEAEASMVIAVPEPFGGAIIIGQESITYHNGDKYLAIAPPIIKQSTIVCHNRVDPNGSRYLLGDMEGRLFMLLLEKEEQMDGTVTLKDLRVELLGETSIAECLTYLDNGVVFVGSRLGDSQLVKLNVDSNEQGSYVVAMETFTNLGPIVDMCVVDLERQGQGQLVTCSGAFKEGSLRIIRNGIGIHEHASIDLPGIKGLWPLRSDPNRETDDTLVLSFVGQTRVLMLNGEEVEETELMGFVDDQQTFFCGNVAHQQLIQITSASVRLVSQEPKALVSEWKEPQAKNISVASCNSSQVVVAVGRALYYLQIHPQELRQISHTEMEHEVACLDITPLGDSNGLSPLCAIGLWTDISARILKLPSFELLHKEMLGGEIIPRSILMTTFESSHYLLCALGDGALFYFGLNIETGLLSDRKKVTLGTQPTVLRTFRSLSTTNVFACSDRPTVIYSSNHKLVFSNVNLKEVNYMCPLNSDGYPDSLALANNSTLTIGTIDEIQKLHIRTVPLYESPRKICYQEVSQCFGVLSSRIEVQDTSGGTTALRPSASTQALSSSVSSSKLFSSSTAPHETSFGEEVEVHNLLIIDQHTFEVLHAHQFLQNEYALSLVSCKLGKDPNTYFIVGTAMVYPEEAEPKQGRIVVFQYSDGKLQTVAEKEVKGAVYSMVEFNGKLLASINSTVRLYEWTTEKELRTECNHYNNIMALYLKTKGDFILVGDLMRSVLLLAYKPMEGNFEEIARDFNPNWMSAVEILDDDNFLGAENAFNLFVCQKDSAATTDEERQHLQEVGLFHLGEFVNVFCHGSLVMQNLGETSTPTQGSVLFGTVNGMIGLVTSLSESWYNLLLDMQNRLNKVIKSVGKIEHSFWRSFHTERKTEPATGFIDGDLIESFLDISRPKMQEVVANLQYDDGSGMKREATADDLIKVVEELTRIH
T5 sequence (O00400 with tags, fused parts or gaps): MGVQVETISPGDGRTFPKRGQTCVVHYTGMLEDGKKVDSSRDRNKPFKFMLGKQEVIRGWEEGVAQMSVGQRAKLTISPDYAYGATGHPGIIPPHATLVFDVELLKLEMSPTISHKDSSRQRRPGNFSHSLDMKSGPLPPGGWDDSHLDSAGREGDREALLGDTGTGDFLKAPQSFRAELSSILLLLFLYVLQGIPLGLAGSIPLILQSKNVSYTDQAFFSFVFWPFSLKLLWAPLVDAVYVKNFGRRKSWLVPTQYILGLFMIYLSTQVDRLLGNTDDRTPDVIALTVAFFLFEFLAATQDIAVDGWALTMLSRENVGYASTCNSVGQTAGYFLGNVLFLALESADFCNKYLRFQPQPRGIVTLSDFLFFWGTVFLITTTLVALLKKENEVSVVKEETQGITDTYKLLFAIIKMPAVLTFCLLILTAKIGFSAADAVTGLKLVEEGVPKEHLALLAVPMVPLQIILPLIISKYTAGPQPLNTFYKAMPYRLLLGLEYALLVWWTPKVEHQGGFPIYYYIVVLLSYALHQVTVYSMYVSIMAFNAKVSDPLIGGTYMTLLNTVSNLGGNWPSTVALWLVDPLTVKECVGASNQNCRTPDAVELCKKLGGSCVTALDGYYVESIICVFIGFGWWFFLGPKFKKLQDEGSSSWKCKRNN
T5 sequence (Q96SW2 whole entry): as the sequence (Q96SW2 whole entry) above
T5 sequence (Q16531 whole entry partner): as the sequence (Q16531 whole entry partner) above
T1 sequence (Q8IVB4 whole entry): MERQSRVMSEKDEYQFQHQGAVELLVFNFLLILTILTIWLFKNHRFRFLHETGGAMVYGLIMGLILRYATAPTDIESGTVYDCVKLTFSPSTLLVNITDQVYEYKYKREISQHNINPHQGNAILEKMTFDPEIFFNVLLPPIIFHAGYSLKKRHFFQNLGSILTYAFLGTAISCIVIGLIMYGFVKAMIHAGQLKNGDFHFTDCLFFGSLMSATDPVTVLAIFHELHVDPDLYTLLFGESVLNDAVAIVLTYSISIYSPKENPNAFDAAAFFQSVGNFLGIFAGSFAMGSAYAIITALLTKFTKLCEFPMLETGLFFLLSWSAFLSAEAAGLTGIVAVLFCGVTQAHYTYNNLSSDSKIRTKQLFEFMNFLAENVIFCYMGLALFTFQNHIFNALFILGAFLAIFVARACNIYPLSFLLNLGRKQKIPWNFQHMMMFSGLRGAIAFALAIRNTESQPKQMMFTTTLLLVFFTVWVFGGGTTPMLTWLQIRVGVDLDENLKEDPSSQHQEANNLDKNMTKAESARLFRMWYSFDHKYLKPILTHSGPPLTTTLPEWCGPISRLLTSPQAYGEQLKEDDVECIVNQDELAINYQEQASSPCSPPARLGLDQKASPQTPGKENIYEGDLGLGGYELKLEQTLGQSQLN
T4 sequence (Q8TB61 with tags, fused parts or gaps): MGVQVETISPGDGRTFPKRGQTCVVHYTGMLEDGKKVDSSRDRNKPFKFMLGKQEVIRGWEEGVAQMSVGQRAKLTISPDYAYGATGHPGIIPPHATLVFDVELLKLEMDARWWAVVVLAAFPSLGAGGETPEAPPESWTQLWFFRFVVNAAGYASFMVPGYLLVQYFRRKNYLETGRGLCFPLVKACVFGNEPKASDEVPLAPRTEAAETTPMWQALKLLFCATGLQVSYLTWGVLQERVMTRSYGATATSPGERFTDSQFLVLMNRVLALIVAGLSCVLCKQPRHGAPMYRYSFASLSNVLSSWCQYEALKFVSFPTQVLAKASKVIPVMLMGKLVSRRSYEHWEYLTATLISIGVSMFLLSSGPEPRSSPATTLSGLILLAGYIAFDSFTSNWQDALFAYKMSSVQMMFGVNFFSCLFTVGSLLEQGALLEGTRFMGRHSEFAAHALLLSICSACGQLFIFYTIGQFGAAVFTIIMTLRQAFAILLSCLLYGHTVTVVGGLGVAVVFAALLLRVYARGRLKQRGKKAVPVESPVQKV
T4 sequence (Q96SW2 whole entry): as the sequence (Q96SW2 whole entry) above
T4 sequence (Q16531 whole entry partner): as the sequence (Q16531 whole entry partner) above
T2 sequence (P19634 whole entry): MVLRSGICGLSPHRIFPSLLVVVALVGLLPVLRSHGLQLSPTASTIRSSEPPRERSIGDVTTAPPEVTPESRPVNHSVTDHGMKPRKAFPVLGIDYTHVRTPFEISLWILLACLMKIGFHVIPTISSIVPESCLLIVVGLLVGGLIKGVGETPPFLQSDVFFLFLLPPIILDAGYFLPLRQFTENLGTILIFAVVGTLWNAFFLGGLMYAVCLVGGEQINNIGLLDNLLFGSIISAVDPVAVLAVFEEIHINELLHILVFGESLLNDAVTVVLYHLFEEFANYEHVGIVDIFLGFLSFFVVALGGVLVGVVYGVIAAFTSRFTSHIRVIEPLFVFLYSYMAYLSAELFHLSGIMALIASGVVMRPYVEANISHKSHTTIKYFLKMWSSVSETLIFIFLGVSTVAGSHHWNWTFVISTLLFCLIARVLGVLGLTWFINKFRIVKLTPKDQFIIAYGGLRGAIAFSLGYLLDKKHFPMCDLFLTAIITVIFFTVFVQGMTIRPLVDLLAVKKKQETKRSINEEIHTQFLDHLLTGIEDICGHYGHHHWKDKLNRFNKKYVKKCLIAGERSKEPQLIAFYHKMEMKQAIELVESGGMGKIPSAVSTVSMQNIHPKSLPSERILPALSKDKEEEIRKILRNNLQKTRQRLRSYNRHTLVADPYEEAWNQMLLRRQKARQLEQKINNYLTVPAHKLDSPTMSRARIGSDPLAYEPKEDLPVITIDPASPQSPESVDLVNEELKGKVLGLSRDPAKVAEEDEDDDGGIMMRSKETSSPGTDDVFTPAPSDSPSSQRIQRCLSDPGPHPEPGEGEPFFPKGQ

Row | Structure (SMILES) | abundance of exogenous SLC9A9 (Strep/HA SLC9A9) | degradation of exogenous SLC9A1 (Strep/HA SLC9A1) | toxicity (relative viability) in patient versus healthy donor PBMCs [1] | reversibility of degradation of the target SLC (dTAG-HA SLC16A1) | reversibility of degradation of the target SLC (dTAG-HA SLC35B2) | initiation of degradation (time course) (dTAG-HA SLC33A1)
1 | Cc1cc(-c2ccc(C(=O)NCCOCCOCCOCCOCCNc3cccc4c3C(=O)N(C3CCC(=O)NC3=O)C4=O)cc2N2CCC(c3[nH]cnc3C)CC2)ccc1F (stereo not drawn) [d9A1-2] | not significantly affected | most efficient degradation | more toxic in patient samples, than in healthy donor samples | – | – | –
2 | CC[C@H](C(=O)N1CCCC[C@H]1C(=O)O[C@H](CCc1ccc(OC)c(OC)c1)c1ccccc1OCC(=O)NCCCOCCOCCOCCCNC(=O)COc1cccc2c1C(=O)N(C1CCC(=O)NC1=O)C2=O)c1cc(OC)c(OC)c(OC)c1 (stereo partly drawn) [dTAG7] | – | – | – | reversible degradation | reversible degradation | ≤ 6 h
